# Measured values: the supplement of paper PMC13380429
# How the values were obtained:
# Conditions in all cases: 72 h
# HepG2 [1] = assay: cell viability relative to DMSO; higher = less toxic
# Calu-3 [2] = assay: as above
# Vero E6 [3] = assay: as above
# U2OS [4] = assay: as above
# HepG2 [5] = assay: relative viability EC50 (midpoint between 100% and the lowest measured viability); higher = less toxic
# Calu-3 [6] = assay: as above
# Vero E6 [7] = assay: as above
# U2OS [8] = assay: as above
# HepG2 [9] = assay: drug sensitivity score (DSS) for viability; higher = more toxic; extreme values may be limits of the assay
# Calu-3 [10] = assay: as above
# Vero E6 [11] = assay: as above
# U2OS [12] = assay: as above
# Caco-2 [13] = assay: cell viability relative to DMSO; higher = less toxic
# Caco-2 [14] = assay: relative viability EC50 (midpoint between 100% and the lowest measured viability); higher = less toxic
# Caco-2 [15] = assay: drug sensitivity score (DSS) for viability; higher = more toxic; extreme values may be limits of the assay
Structure (SMILES),cell viability (HepG2 [1]; 1 nM) [%],cell viability (HepG2 [1]; 10 nM) [%],cell viability (HepG2 [1]; 100 nM) [%],cell viability (HepG2 [1]; 1000 nM) [%],cell viability (HepG2 [1]; 10000 nM) [%],cell viability (Calu-3 [2]; 1 nM) [%],cell viability (Calu-3 [2]; 10 nM) [%],cell viability (Calu-3 [2]; 100 nM) [%],cell viability (Calu-3 [2]; 1000 nM) [%],cell viability (Calu-3 [2]; 10000 nM) [%],cell viability (Vero E6 [3]; 1 nM) [%],cell viability (Vero E6 [3]; 10 nM) [%],cell viability (Vero E6 [3]; 100 nM) [%],cell viability (Vero E6 [3]; 1000 nM) [%],cell viability (Vero E6 [3]; 10000 nM) [%],cell viability (U2OS [4]; 1 nM) [%],cell viability (U2OS [4]; 10 nM) [%],cell viability (U2OS [4]; 100 nM) [%],cell viability (U2OS [4]; 1000 nM) [%],cell viability (U2OS [4]; 10000 nM) [%],relative viability EC50 (HepG2 [5]) [µM],relative viability EC50 (Calu-3 [6]) [µM],relative viability EC50 (Vero E6 [7]) [µM],relative viability EC50 (U2OS [8]) [µM],drug sensitivity score (HepG2 [9]),drug sensitivity score (Calu-3 [10]),drug sensitivity score (Vero E6 [11]),drug sensitivity score (U2OS [12]),cell viability (Caco-2 [13]; 1 nM) [%],cell viability (Caco-2 [13]; 10 nM) [%],cell viability (Caco-2 [13]; 100 nM) [%],cell viability (Caco-2 [13]; 1000 nM) [%],cell viability (Caco-2 [13]; 10000 nM) [%],relative viability EC50 (Caco-2 [14]) [µM],drug sensitivity score (Caco-2 [15])
CCCCCOc1ccc(-c2cc(-c3ccc(C(=O)N[C@H]4C[C@@H](O)[C@@H](O)NC(=O)[C@@H]5[C@@H](O)[C@@H](C)CN5C(=O)[C@H]([C@H](O)CC(N)=O)NC(=O)[C@H]([C@H](O)[C@@H](O)c5ccc(O)c(OS(=O)(=O)O)c5)NC(=O)[C@@H]5C[C@@H](O)CN5C(=O)[C@H]([C@@H](C)O)NC4=O)cc3)no2)cc1 [micafungin],98.4,117,106,81.8,109,106,108,98.3,99.4,115,99.2,101,106,97.2,92.9,104,102,103,101,99.4,> 10,> 10,> 10,> 10,0,0,0,0,,,,,,,
CCCCc1ccc2[nH]c(NC(=O)OC)nc2c1 [parbendazole],82.9,98.3,98.2,51.7,31.5,103,96.1,96.9,69.8,57.2,96,98.2,94.5,39,28.8,96.4,98,93.2,59.2,32.7,0.641,,0.38,0.676,9.6,5.9,12,8.8,104,94.7,91.7,59.9,48.9,0.353,8.3
O=C1[C@H]2CCCC[C@H]2C(=O)N1CCCCN1CCN(c2nsc3ccccc23)CC1 [perospirone],97.4,88.9,89.1,89.1,86.1,94.1,101,99.3,98.7,89,104,98.7,102,101,107,96.2,99.7,104,92.9,92.8,> 10,> 10,> 10,> 10,2,0,0,0,86.7,87,91.8,92.9,65.9,,3.4
Fc1ccc(CNc2ncnc3ccc(F)cc23)cc1 [spautin-1],99.2,102,104,88.8,26.3,97.3,90.2,100,88.6,70.1,102,96,96.6,89.5,89.1,92.2,97.4,101,95.5,96.7,1.98,,> 10,> 10,5.9,2.8,0.1,0,99.7,98.9,96,91,69.3,,2.4
O=C1C[C@@H]2OCC=C3CN4CC[C@]56c7ccccc7N1[C@H]5[C@H]2[C@H]3C[C@H]46 [strychnine],113,93.7,106,83.1,96.3,,,,,,102,98.8,98.3,87.1,88.7,97.2,101,96.8,103,95.8,> 10,,> 10,> 10,1.7,,0.9,0,97.8,91.1,83,85.6,90.2,> 10,3.7
O=C1c2ccccc2-n2c1nc1ccccc1c2=O [tryptanthrin],88.7,87.5,90.7,98.2,40.5,,,,,,104,99.6,101,95.7,96.9,96.5,97.7,101,102,97.7,2.94,,> 10,> 10,3.5,,0,0,101,107,110,104,79.7,> 10,0.4
Cc1cc(CC(=O)O)n(C)c1C(=O)c1ccc(Cl)cc1 [zomepirac],88,84.9,84.7,101,91.6,94.7,99.6,97.4,94.3,103,105,94.6,104,94.4,93.7,96.6,101,92.9,97.7,99.6,> 10,> 10,> 10,> 10,0.1,0,0,0,94.4,97.7,75.3,74.4,77.8,,7.3
